The results in this text go back to patent publication US20120273764A1, “COMPOSITION FOR ORGANIC PHOTOELECTRIC DEVICE, ORGANIC PHOTOELECTRIC DEVICE USING THE SAME, AND DISPLAY DEVICE INCLUDING THE SAME” (CHEIL INDUSTRIES, INC., priority 2009, published 2012).

Structures are written as SMILES.

This series can be described thus: Solubility evaluation in organic solvent. It counts as physicochemical. Particulars: for Solubility Chlorobenzene / Solubility Toluene: 30 mg compound made up to 1.0 g solution, rolled at room temperature for 1 hour, 0.2 μm syringe filter. As for the experimental part: An organic solvent was added to 30 mg of each compound, and mixed until the total weight of each solution became 1.0 g. The mixture was rolled at room temperature for 1 hour, and then filtered with a syringe filter (Acrodisc Company) whose average pore diameter was 0.2 μm. Herein, solubility and film-forming properties were compared based on CBP, which is a generally-used host compound.
(1) Solubility Evaluation Method: solubility was determined by removing the filtered solution of the solvent and measuring the mass of the remaining solid, and the result is shown in the following Table 1. […]

In the case of `c1ccc(-n2c3ccccc3c3c4c5ccccc5n(-c5ccccc5)c4ccc32)cc1` [Chem. Form. 20], the “Solubility Chlorobenzene” value (chlorobenzene) is recorded as “equal to 3 wt %”. The “Solubility Toluene” value (toluene) is “equal to 3 wt %”.
Turning to `c1ccc2c(c1)c1ccccc1n2-c1ccc(-c2ccc(-n3c4ccccc4c4ccccc43)cc2)cc1` [CBP, 4,4-N,N-dicarbazolebiphenyl, reference compound], under “chlorobenzene”, the “Solubility in chlorobenzene (in words)” value is “part of the CBP was dissolved” and the “Solubility Chlorobenzene” value came to 1 wt %. For the same molecule, under “toluene”, the “Solubility in toluene (in words)” value is listed as “little CBP was dissolved” and the “Solubility Toluene” value was “equal to 0.5 wt %”.
`c1cncc(-c2nnc(-c3cc(-c4ccc5c(c4)C4(c6ccccc6-c6ccccc64)c4ccccc4-5)cc(-c4ccc5c(c4)C4(c6ccccc6-c6ccccc64)c4ccccc4-5)c3)o2)c1` [Chem. Form. 44]: for the setting “chlorobenzene”, the “Solubility Chlorobenzene” value is reported as “equal to 3 wt %”. The “Solubility Toluene” value (toluene) was “equal to 3 wt %”.
Regarding `c1ccc(-c2nnc(-c3ccc(-c4ccc5c(c4)C4(c6ccccc6-c6ccccc64)c4ccccc4-5)cc3)o2)cc1` [Chem. Form. 43], the “Solubility Chlorobenzene” value (chlorobenzene) is on record as “equal to 3 wt %”. Moreover, the “Solubility Toluene” value (toluene) is recorded as “equal to 3 wt %”.
For the molecule `c1ccc(-n2c3ccccc3c3ccc4c5ccccc5n(-c5ccccc5)c4c32)cc1` [Chem. Form. 38], the “Solubility Chlorobenzene” value (chlorobenzene) is on record as “equal to 3 wt %”. Further, the “Solubility Toluene” value (toluene) is recorded as “equal to 3 wt %”.
